The target of one test is T1, Methionine aminopeptidase 1 (Saccharomyces cerevisiae S288c, UniProt Q01662).
T1 sequence (Q01662 whole entry): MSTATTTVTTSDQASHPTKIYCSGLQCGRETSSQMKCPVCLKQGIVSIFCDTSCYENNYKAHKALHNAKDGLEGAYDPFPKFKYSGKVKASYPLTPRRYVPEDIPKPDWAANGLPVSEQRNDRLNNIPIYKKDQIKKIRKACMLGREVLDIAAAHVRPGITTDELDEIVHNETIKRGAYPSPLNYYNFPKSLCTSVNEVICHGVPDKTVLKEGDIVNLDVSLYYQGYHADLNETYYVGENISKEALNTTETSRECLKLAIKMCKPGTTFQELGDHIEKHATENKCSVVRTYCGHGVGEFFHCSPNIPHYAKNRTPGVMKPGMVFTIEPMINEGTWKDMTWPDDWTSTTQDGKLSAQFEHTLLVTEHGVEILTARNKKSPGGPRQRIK
The test is described as follows: Inhibitory concentration against Saccharomyces cerevisiae methionine aminopeptidase 1.
One may read the IC50 as the concentration that inhibits the measured activity by half. Higher therefore signals lower potency. In turn, `CC(C)(C)OC(=O)Nc1ccc(C(=O)Nc2nccs2)nc1` showed an IC50 of 62.9 µM.
In the case of `O=C(Nc1nccs1)c1cc([N+](=O)[O-])ccn1`, the IC50 is more than 100 µM.
`COc1ccnc(C(=O)Nc2nccs2)c1` gave a concentration for half-maximal inhibition (IC50) of more than 100 µM.
`O=C(Nc1nccs1)c1cc(OCc2ccccc2)ccn1` came in with an IC50 of more than 100 µM.
In turn, `CCCCc1ccc(C(=O)Nc2nccs2)nc1` displayed a concentration for half-maximal inhibition (IC50) of more than 100 µM.
As for `CC(=O)Nc1ccnc(C(=O)Nc2nccs2)c1`, the IC50 came to 17 µM.
As for `O=C(Nc1nccs1)c1cc(NCc2ccccc2)ccn1`, the concentration for half-maximal inhibition (IC50) is more than 100 µM.
On the same count and under the same terms, the same measure for `O=C(Nc1nccs1)c1cccc(C(=O)Nc2nccs2)n1`: more than 100 µM; for `Nc1ccnc(C(=O)Nc2nccs2)c1`: more than 100 µM; for `Nc1ccc(C(=O)Nc2nccs2)nc1`: 2.43 µM.
On the same count and under the same terms, the same measure for `O=C(Nc1nccs1)c1ncccc1OCc1ccccc1`: 0.77 µM; for `CC(C)=CCc1ccc(C(=O)Nc2nccs2)nc1`: more than 100 µM.
The same measure, in the same setting: under `O=C(Nc1nccs1)c1cc(Cl)ccn1` stands more than 100 µM.

For a further test, the target named is T2, Methionine aminopeptidase (Escherichia coli K-12, UniProt P0AE18).
T2 sequence (P0AE18 whole entry): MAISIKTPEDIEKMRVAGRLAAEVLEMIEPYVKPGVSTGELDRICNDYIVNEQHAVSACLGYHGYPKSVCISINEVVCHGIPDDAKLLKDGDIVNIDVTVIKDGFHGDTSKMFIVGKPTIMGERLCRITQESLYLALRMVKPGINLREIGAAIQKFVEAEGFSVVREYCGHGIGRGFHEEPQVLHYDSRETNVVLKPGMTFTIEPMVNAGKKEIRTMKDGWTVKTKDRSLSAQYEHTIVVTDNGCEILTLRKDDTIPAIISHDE
Briefly: Inhibitory concentration against Escherichia coli methionine aminopeptidase 1.
Consider `CC(C)(C)OC(=O)Nc1ccc(C(=O)Nc2nccs2)nc1`, for which the IC50 amounted to 12.8 µM.
On to `O=C(Nc1nccs1)c1cc([N+](=O)[O-])ccn1`, for which the half-maximal inhibitory concentration (IC50) was 4.51 µM.
`CC(=O)OCc1cccc(C(=O)Nc2nccs2)n1` showed an IC50 of more than 100 µM.
In the case of `O=C(Nc1nccs1)c1cc(OCc2ccccc2)ccn1`, the IC50 is more than 100 µM.
On the same count and under the same terms, the same measure for `CCCCc1ccc(C(=O)Nc2nccs2)nc1`: more than 100 µM.
On to `CC(=O)Nc1ccnc(C(=O)Nc2nccs2)c1`, for which the IC50 amounted to 1.98 µM.
Still for that read-out and setting: under `O=C(Nc1nccs1)c1cc(NCc2ccccc2)ccn1` stands 2.32 µM.
On the same count and under the same terms, the same measure for `O=C(Nc1nccs1)c1cccc(C(=O)Nc2nccs2)n1`: more than 100 µM.
Consider `Nc1ccnc(C(=O)Nc2nccs2)c1`, for which the IC50 is 6.71 µM. That is a single-digit micromolar value.
On the same count and under the same terms, under `Nc1ccc(C(=O)Nc2nccs2)nc1` stands 2.09 µM.
Still for that read-out and setting: the same measure for `O=C(Nc1nccs1)c1ncccc1OCc1ccccc1`: 1.41 µM; for `CC(C)=CCc1ccc(C(=O)Nc2nccs2)nc1`: more than 100 µM.
The same measure, in the same setting: under `O=C(Nc1nccs1)c1cc(Cl)ccn1` stands more than 100 µM.

The values are drawn from ChEMBL document CHEMBL1144280, “Inhibitors of type I MetAPs containing pyridine-2-carboxylic acid thiazol-2-ylamide. Part 1: SAR studies on the determination of the key scaffold” (Bioorg Med Chem Lett, 2005).
